Reference: US9994594B2, “Inhibitors of arginase and their therapeutic applications” (MARS, INCORPORATED, priority 2010, dated 2018)
Counter-ions that a name gives are not always drawn.

Legend:
[1] = biological target: T1, arginase II (ARG II) (Homo sapiens, UniProt P78540); experiment: Inhibition of arginase II, spectrophotometric urea assay at 530 nm; format: biochemical; details: Formula II compounds, Table 2-A; read-out: Potency (ARG)
T1 sequence (P78540 23-354): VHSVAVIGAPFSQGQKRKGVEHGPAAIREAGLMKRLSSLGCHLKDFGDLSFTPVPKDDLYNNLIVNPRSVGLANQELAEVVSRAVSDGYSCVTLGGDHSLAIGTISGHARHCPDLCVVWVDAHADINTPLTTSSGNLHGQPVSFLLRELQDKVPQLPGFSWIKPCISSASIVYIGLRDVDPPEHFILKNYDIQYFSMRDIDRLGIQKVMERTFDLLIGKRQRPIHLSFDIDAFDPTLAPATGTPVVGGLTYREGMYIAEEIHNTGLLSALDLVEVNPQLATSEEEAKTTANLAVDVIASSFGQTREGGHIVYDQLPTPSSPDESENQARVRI
Description: (§1) The assay established the concentration of inhibitor that is required to reduce arginase activity by 50% (IC50).
(§2) Inhibition of arginase I (ARG I) and arginase II (ARG II) by Formula I and Formula II compounds is followed spectrophotometrically at 530 nm. The compound to be tested is dissolved in DMSO at an initial concentration 50-fold greater than its final concentration in the cuvette. 10 μl of the stock solution is diluted in 90 μl of the assay buffer that comprises 0.1M sodium phosphate buffer containing 130 mM NaCl, pH 7.4, to which is added ovalbumin (OVA) at a concentration of 1 mg/ml. Solutions of arginase I and II are prepared in 100 mM sodium phosphate buffer, pH 7.4 containing 1 mg/ml of OVA to give an arginase stock solution at a final concentration of 100 ng/ml.
(§3) To each well of a 96-well microtiter plate is add 40 μl of enzyme, 10 μl of an inventive compound and 10 μl of enzyme substrate (L-arginine+manganese sulfate). For wells that are used as positive controls, only the enzyme and its substrate are added, while wells used as negative controls contain only manganese sulfate.
(§4) After incubating the microtiter plate at 37° C. for 60 minutes, 150 μl of a urea reagent obtained by combining equal proportions (1:1) of reagents A and B is added to each well of the microtiter plate to stop the reaction. The urea reagent is made just before use by combining Reagent A (10 mM o-phthaldialdehyde, and 0.4% polyoxyethylene (23) lauryl ether (w/v) in 1.8 M sulfuric acid) with Reagent B (1.3 mM primaquine diphosphate, 0.4% polyoxyethylene (23) lauryl ether (w/v), 130 mM boric acid in 3.6 M sulfuric acid). After quenching the reaction mixture, the microtiter plate is allowed to stand for an additional 10 minutes at room temperature to allow color development. The inhibition of arginase is computed by measuring the optical density (OD) of the reaction mixture at 530 nm and normalizing the OD value to percent inhibition observed in the control. The normalized OD is then used to generate a dose-response curve by plotting the normalized OD values against log [concentration] and using regression analysis to compute the IC50 values.

[2] = biological target: T2, human arginase I (ARG I) (Homo sapiens, UniProt P05089); experiment: Inhibition of arginase I, spectrophotometric urea assay at 530 nm; format: biochemical; details: Formula II compounds, Table 2-A; read-out: Potency (ARG I)
T2 sequence (P05089 1-322): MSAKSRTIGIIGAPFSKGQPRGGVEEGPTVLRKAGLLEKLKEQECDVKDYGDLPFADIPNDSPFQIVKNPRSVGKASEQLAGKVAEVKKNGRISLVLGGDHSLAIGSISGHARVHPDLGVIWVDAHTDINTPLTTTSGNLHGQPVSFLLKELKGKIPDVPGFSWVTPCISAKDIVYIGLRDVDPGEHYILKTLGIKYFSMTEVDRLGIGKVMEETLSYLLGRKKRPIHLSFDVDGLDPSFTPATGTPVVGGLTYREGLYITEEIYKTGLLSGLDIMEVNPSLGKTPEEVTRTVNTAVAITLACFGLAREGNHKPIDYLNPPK
Description: as §1, §2, §3, §4

IC50 [1] [nM] | IC50 [2] [nM] | SMILES
251 to 1000 | 0.1 to 250 | NC(CCCCB(O)O)(C(=O)O)C1CCN(CCc2ccc(Cl)cc2Cl)CC1 (stereo not drawn) [Example 47-A, 2-amino-6-borono-2-(1-(2,4-dichlorophenethyl)piperidin-4-yl)hexanoic acid]
251 to 1000 | 0.1 to 250 | NC(CCCCB(O)O)(C(=O)O)C1CCN(Cc2ccc(F)c(F)c2)CC1 (stereo not drawn) [Example 48-A, 2-amino-6-borono-2-(1-(3,4-difluorobenzyl)piperidin-4-yl)hexanoic acid]
0.1 to 250 | 251 to 1000 | NC(CCCCB(O)O)(C(=O)O)C1CCN(Cc2ccc(Cl)c(F)c2)CC1 (stereo not drawn) [Example 49-A, 2-amino-6-borono-2-(1-(4-chloro-3-fluorobenzyl)piperidin-4-yl)hexanoic acid]
251 to 1000 | 0.1 to 250 | NC(CCCCB(O)O)(C(=O)O)C1CCN(CCCc2cc(F)cc(Cl)c2)CC1 (stereo not drawn) [Example 50-A, 2-amino-6-borono-2-(1-(3-(3-chloro-5-fluorophenyl)propyl)piperidin-4-yl)hexanoic acid]
251 to 1000 | 0.1 to 250 | NC(CCCCB(O)O)(C(=O)O)C1CCN(Cc2ccc(F)c3ccccc23)CC1 (stereo not drawn) [Example 51-A, 2-amino-6-borono-2-(1-((4-fluoronaphthalen-1-yl)methyl)piperidin-4-yl)hexanoic acid]
0.1 to 250 | 0.1 to 250 | NC(CCCCB(O)O)(C(=O)O)C1CCN(CCCc2ccc(F)cc2F)CC1 (stereo not drawn) [Example 52-A, 2-amino-6-borono-2-(1-(3-(2,4-difluorophenyl)propyl)piperidin-4-yl)hexanoic acid dihydrochloride]
251 to 1000 | 251 to 1000 | NC(CCCCB(O)O)(C(=O)O)C1CCN(Cc2ccccc2C(F)(F)F)CC1 (stereo not drawn) [Example 53-A, 2-amino-6-borono-2-(1-(2-(trifluoromethyl)benzyl)piperidin-4-yl)hexanoic acid dihydrochloride]
251 to 1000 | 0.1 to 250 | NC(CCCCB(O)O)(C(=O)O)C1CCN(Cc2ccccc2N2CCOCC2)CC1 (stereo not drawn) [Example 54-A, 2-amino-6-borono-2-(1-(2-morpholinobenzyl)piperidin-4-yl)hexanoic acid dihydrochloride]
0.1 to 250 | 0.1 to 250 | NC(CCCCB(O)O)(C(=O)O)C1CCN(Cc2ccccc2-c2ccccc2)CC1 (stereo not drawn) [Example 55-A, 2-amino-2-(1-(biphenyl-2-ylmethyl)piperidin-4-yl)-6-boronohexanoic acid dihydrochloride]
251 to 1000 | 0.1 to 250 | NC(CCCCB(O)O)(C(=O)O)C1CCN(Cc2cccc3cccnc23)CC1 (stereo not drawn) [Example 56-A, 2-amino-6-borono-2-(1-(quinolin-8-ylmethyl)piperidin-4-yl)hexanoic acid dihydrochloride]
251 to 1000 | 0.1 to 250 | NC(CCCCB(O)O)(C(=O)O)C1CCN(Cc2ccccc2-c2cccnc2)CC1 (stereo not drawn) [Example 57-A, 2-amino-6-borono-2-(1-(2-(pyridin-3-yl)benzyl)piperidin-4-yl)hexanoic acid dihydrochloride]
251 to 1000 | 0.1 to 250 | COc1cccc(-c2ccccc2CN2CCC(C(N)(CCCCB(O)O)C(=O)O)CC2)c1 (stereo not drawn) [Example 58-A, 2-amino-6-borono-2-(1-((3′-methoxybiphenyl-2-yl)methyl)piperidin-4-yl)hexanoic acid dihydrochloride]
0.1 to 250 | 0.1 to 250 | NC(CCCCB(O)O)(C(=O)O)C1CCN(CCc2ccc(F)c(F)c2)CC1 (stereo not drawn) [Example 59-A, 2-amino-6-borono-2-(1-(3,4-difluorophenethyl)piperidin-4-yl)hexanoic acid acid dihydrochloride]
0.1 to 250 | 0.1 to 250 | NC(CCCCB(O)O)(C(=O)O)C1CCN(Cc2cccc3c2OCCC3)CC1 (stereo not drawn) [Example 60-A, 2-amino-6-borono-2-(1-(chroman-8-ylmethyl)piperidin-4-yl)hexanoic acid dihydrochloride]
251 to 1000 | 251 to 1000 | Cc1cc(CN2CCC(C(N)(CCCCB(O)O)C(=O)O)CC2)n(C)n1 (stereo not drawn) [Example 62-A, 2-amino-6-borono-2-(1-((1,3-dimethyl-1H-pyrazol-5-yl)methyl)piperidin-4-yl)hexanoic acid dihydrochloride]
0.1 to 250 | 0.1 to 250 | NC(CCCCB(O)O)(C(=O)O)C1CCN(CCCc2ccc(C(F)(F)F)cc2)CC1 (stereo not drawn) [Example 63-A, 2-amino-6-borono-2-(1-(3-(4-(trifluoromethyl)phenyl)propyl)piperidin-4-yl)hexanoic acid acid dihydrochloride]
0.1 to 250 | 0.1 to 250 | NC(CCCCB(O)O)(C(=O)O)C1CCN(Cc2ccc(Oc3ccc(Cl)c(Cl)c3)cc2)CC1 (stereo not drawn) [Example 64-A, 2-amino-6-borono-2-(1-(4-(3,4-dichlorophenoxy)benzyl)piperidin-4-yl)hexanoic acid dihydrochloride]
0.1 to 250 | 0.1 to 250 | NC(CCCCB(O)O)(C(=O)O)C1CCN(Cc2cccc(Cn3cccn3)c2)CC1 (stereo not drawn) [Example 65-A, 2-(1-(3-((1H-pyrazol-1-yl)methyl)benzyl)piperidin-4-yl)-2-amino-6-boronohexanoic acid dihydrochloride]
0.1 to 250 | 0.1 to 250 | NC(CCCCB(O)O)(C(=O)O)C1CCN(CCCc2ccc(Cl)cc2Cl)CC1 (stereo not drawn) [Example 66-A, 2-amino-6-borono-2-(1-(3-(2,4-dichlorophenyl)propyl)piperidin-4-yl)hexanoic acid dihydrochloride]
251 to 1000 | 251 to 1000 | NC(CCCCB(O)O)(C(=O)O)[C@@H]1CCN(Cc2ccccc2)C1 (stereo partly drawn) [Example 67-A, 2-amino-2-((R)-1-benzylpyrrolidin-3-yl)-6-boronohexanoic acid dihydrochloride]
251 to 1000 | 251 to 1000 | NC(CCCCB(O)O)(C(=O)O)[C@H]1CCN(Cc2ccccc2)C1 (stereo partly drawn) [Example 68-A, 2-amino-2-((S)-1-benzylpyrrolidin-3-yl)-6-boronohexanoic acid dihydrochloride]
1000 to 2000 | 251 to 1000 | NC(CCCCB(O)O)(C(=O)O)[C@H]1CCCN(Cc2ccc(Cl)c(Cl)c2)C1 (stereo partly drawn) [Example 69-A, 2-amino-6-borono-2-((S)-1-(3,4-dichlorobenzyl)piperidin-3-yl)hexanoic acid dihydrochloride]
251 to 1000 | 0.1 to 250 | NC(CCCCB(O)O)(C(=O)O)C1CCCNCC1 (stereo not drawn) [Example 72-A, 2-amino-2-(azepan-4-yl)-6-boronohexanoic acid dihydrochloride]
251 to 1000 | 0.1 to 250 | NC(CCCCB(O)O)(C(=O)O)C1CCCN(Cc2ccc(Cl)c(Cl)c2)CC1 (stereo not drawn) [Example 73-A, 2-amino-6-borono-2-(1-(3,4-dichlorobenzyl)azepan-4-yl)hexanoic acid dihydrochloride]
0.1 to 250 | 0.1 to 250 | NC(CCCCB(O)O)(C(=O)O)[C@H]1C[C@@H](NCc2ccccc2)C1 (stereo partly drawn) [Example 74-A, cis-2-amino-2-(3-(benzylamino)cyclobutyl)-6-boronohexanoic acid dihydrochloride]
251 to 1000 | 0.1 to 250 | NC(CCCCB(O)O)(C(=O)O)[C@H]1C[C@H](NCc2ccccc2)C1 (stereo partly drawn) [Example 75-A, trans-2-amino-2-(3-(benzylamino)cyclobutyl)-6-boronohexanoic acid dihydrochloride]
0.1 to 250 | 0.1 to 250 | NC(CCCCB(O)O)(C(=O)O)[C@H]1C[C@@H](NCc2ccc(OC(F)(F)F)cc2)C1 (stereo partly drawn) [Example 76-A, cis-2-amino-6-borono-2-(3-(4-(trifluoromethoxy)benzylamino)cyclobutyl)hexanoic acid dihydrochloride]
